Patent US20230192683A1, “FUSED RING COMPOUNDS, PREPARATION METHOD THEREFOR, PHARMACEUTICAL COMPOSITIONS AND USE THEREOF” (priority 2020, published 2023)

What was measured:
human SSTR4 = target: T1, human SSTR4 (Homo sapiens, UniProt P31391); assay: cell-based human SSTR4 cAMP assay (agonist activity); details: SSTR4, EC50 (nM), Flp-In-CHO-SSTR4 stable pool, Forskolin-stimulated cAMP
T1 construct: expressed in transfected cells
Description: Purpose of test: A cell-based human SSTR4 cAMP assay was used to determine the agonistic effect of the test compound on an SSTR 4 receptor.
Cell culture and reagent preparation: cell line: Flp-In-CHO-SSTR4 stable pool; complete medium: Ham’s F-12 K + 10% FBS + 1 × penicillin-streptomycin (PS) + 600 µg/ml hygromycin B; cell seeding medium: Ham’s F-12K + 10% FBS; assay buffer: 1 × HBSS + 20 mM HEPES + 0.1%BSA + 500 uM IBMX.
The Flp-In-CHO-SSTR 4 stable pool cell line was cultured in a complete medium at 37° C., 5% CO2 until a confluency of 70% to 90%.
After TrypLE digestion, the cells were resuspended in the seeding medium and seeded in a 384-well cell culture plate (384 PE culture plate), with 7,000 cells per well, and were cultured overnight at 37° C., 5% CO2.
The cell culture plate was taken out, inverted at 200 g at room temperature for 5 s to remove the medium, then quickly filled with 15 µl of an experimental buffer to each experimental well, and centrifuged at 200 g at room temperature for 5 s.
2.5 µl of the 8x compound working solution diluted in step 3 was added to corresponding test wells, which were centrifuged at 200 g for 5 s at room temperature, and incubated at 37° C. for 10 min.
A 4 uM Forskolin working solution (8x) was prepared.
The cell plate was taken out and equilibrated to room temperature, then filled with 2.5 µl of the 8x Forskolin working solution prepared in step 6 to corresponding test wells, followed by RT at 200 g for 5 s, and left to stand at 37° C. for 30 min.
A Eu-cAMP tracer and Uliaght-anti-cAMP were freeze-thawed, the Eu-cAMP tracer was diluted 50-fold with a detection buffer, and the Uliaght-anti-cAMP was dilutd 150-fold.
10 µl of the Eu-cAMP tracer was added to all experimental wells, then 10 µl of the detection buffer was added to NC wells, and 10 µl of the Uliaght-anti-cAMP was added to the remaining experimental wells.
The reaction plate was centrifuged at 200 g for 30 s at room temperature, and after standing at 25° C. for 1 h, data was collected using Envision.
Compound EC50 was calculated using a GraphPad nonlinear fitting formula: […]
X: Compound concentration log value; Y: HTRF ratio

[1] = pharmacokinetic evaluation in rats after oral and intravenous administration; assay type: in vivo; details: Sprague-Dawley, rat, plasma, male SD rats, oral 10.0 mg/kg, intravenous 1.0 mg/kg, route and unit inferred
Description: Using rats as test animals, an LC/MS/MS method was used to determine the drug concentrations in plasma at different times after oral and intravenous administration of Compound 1a and Compound 14 in the rats. The pharmacokinetic behavior of the compounds of the present invention in rats was studied, and pharmacokinetic characteristics thereof were evaluated.
For each compound, 6 healthy adult SD (Sprague-Dawley) rats, male, were divided into oral and intravenous administration groups, 3 rats in each group, purchased from Shanghai SIPPR/BK Laboratory Animal Co., Ltd., animal production license number: SCXK (Shanghai) 2008-0016.
A specific amount of the drug was weighed and dissolved in 5% dimethylacetamide (DMA) + 5% polyethylene glycol-15 hydroxystearate (solutol) + 90% saline solution to prepare a 0.2 mg/mL solution.
The SD rats were fasted overnight and were administered orally and intravenously. The oral dose was 10.0 mg/kg, and the intravenous dose was 1.0 mg/kg.
Compound 1a and Compound 14 were administered orally and intravenously to the rats. At 0.083, 0.25, 0.5, 1, 2, 4, 8, and 24 hours after administration, 0.2 mL of blood was collected from the submandibular vein or other suitable blood vessels, placed in K2-EDTA tubes, and then stored on ice. Within one hour, the plasma was separated by centrifugation at 6,800 g for 6 minutes at 2-8° C., and stored at -80° C. for LC/MS/MS analysis. The rats were fed 4 hours after administration.

T1 sequence (P31391 whole entry): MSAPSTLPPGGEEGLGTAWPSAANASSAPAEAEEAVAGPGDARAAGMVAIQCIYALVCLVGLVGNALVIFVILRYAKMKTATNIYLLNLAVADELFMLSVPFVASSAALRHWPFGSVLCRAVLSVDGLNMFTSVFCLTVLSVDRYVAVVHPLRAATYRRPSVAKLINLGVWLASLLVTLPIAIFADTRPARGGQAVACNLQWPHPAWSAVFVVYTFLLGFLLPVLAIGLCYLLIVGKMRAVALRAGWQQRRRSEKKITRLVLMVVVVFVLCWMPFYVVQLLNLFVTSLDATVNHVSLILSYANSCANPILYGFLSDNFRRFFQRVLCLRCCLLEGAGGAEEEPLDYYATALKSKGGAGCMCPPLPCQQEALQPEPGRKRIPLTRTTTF

EC50 (human SSTR4): 0.057 nM
half-life [1]: 2.58 ± 0.5 h
Vd ([1]; read-out: Apparent volume of distribution): 7.09 ± 1.08 L/kg
clearance ([1]; read-out: Clearance rate): 48.7 ± 5.01 mL/min/kg
SMILES: CSc1cccc2c(C(C)(C)NC(=O)[C@H]3[C@@H]4CNC[C@@H]43)nn(C)c12 [Compound 14, (1R,5S,6R)-N-(2-(1-Methyl-7-(Methylthio)-1H-Indazol-3-yl)Prop-2-yl)-3-Azabicyclo[3.1.0]Hexane-6-Carboxamide]
